Laboratory results published in paper PMC11694131 (Haematologica, 2024).
Like-named read-outs stand apart in the source and are kept apart here.

What was measured:
MOLT4 = assay: CellTiter-Glo viability, MOLT4; format: cell-based; details: read-out: IC50, CellTiter-Glo
LOUCY = assay: CellTiter-Glo viability, LOUCY; format: cell-based; details: read-out: IC50, CellTiter-Glo
CCRF-CEM = assay: CellTiter-Glo viability, CCRF-CEM; format: cell-based
RS4;11 = assay: CellTiter-Glo viability, RS4; format: cell-based; details: for IC50: Homo sapiens, RS4-11, 24 h, read-out: IC50, CellTiter-Glo
PF-382 = assay: CellTiter-Glo viability, PF-382; format: cell-based; details: read-out: IC50, CellTiter-Glo
[1] = test system: treatment-naïve primary CLL cells; assay: TMRM / Annexin V apoptosis assay, treatment-naïve primary CLL cells; format: cell-based; details: Homo sapiens, CLL cell, 18 h, read-out: IC50, apoptosis (TMRM and Annexin V)
[2] = test system: primary CLL cells co-cultured on HS-5 stromal cells; assay: Primary CLL cells co-cultured on HS-5 stroma, Annexin V / TMRM; format: cell-based, human; details: HS-5 co-culture 24 hr
in vitro = details: human
[3] = Single-dose dog PK and platelet toxicity study; format: in vivo; details: 25 mg/kg single oral dose
[4] = test system: venetoclax-relapsed primary CLL cells; assay: TMRM / Annexin V apoptosis assay, venetoclax-relapsed primary CLL cells; format: cell-based; details: Homo sapiens, CLL cell, read-out: IC50, apoptosis (TMRM and Annexin V)
platelets = assay: 14-day repeat-dose non-GLP platelet toxicity study in dogs; format: in vivo, dog; details: oral once daily
[5] = test system: primary CLL cells cultured with or without NK Tert stroma; assay: Primary CLL cells with or without NK Tert stroma, Annexin V / TMRM; format: cell-based; details: Homo sapiens, CLL cell
[6] = test system: RS4;11 cells with WT BCL2; assay: TMRM / Annexin V staining, RS4; format: cell-based; details: Homo sapiens, RS4-11, 72 h, read-out: IC50, TMRM / Annexin V
RS4;11 WT BCL2 xenograft = assay: RS4; format: in vivo, mouse; details: 6.25 mg/kg orally once daily for 28 days
OSU-CLL xenograft = assay: OSU-CLL xenograft; format: in vivo, mouse; details: 50 mg/kg daily oral gavage
[7] = test system: OSU-CLL BCL2 knockout (KO) cells; assay: CellTiter-Glo viability, OSU-CLL BCL2 KO; format: cell-based; details: 72 hr, above 200 nM
[8] = read-out: IC50, CLL cells co-cultured with NK Tert cells
[9] = read-out: IC50, CLL cells without stromal protection

| SMILES | IC50 [1] [nM] | IC50 (LOUCY; 24 h) [nM] | effect of HS-5 stroma on sensitivity of CLL cells [2] | IC50 (in vitro) [nM] | maximum reduction in platelets [3] [%] | IC50 [4] [nM] | IC50 (RS4;11) [nM] | IC50 [5, 8] [nM] | IC50 [5, 9] [nM] | further results |
| --- | --- | --- | --- | --- | --- | --- | --- | --- | --- | --- |
| Cc1c(-c2ccc(N3CCc4cccc(C(=O)Nc5nc6ccccc6s5)c4C3)nc2C(=O)O)cnn1CC12CC3CC(CC(C3)C1)C2 [A-1331852] |  |  |  |  |  |  |  |  |  | IC50 (MOLT4; MOLT4, 24 hr): 5.5 nM; IC50 (LOUCY; LOUCY, 24 hr): 130 nM; IC50 (CCRF-CEM; read-out: IC50, CellTiter-Glo, 24 hr): 13.9 nM; IC50, CellTiter-Glo (RS4;11; RS4;11, 24 hr): not effective; IC50 (PF-382; PF-382, 24 hr): 46.6 nM |
| CC1(C)CCC(c2ccc(Cl)cc2)=C(CN2CCN(c3ccc(C(=O)NS(=O)(=O)c4ccc(N[C@H](CCN5CCOCC5)CSc5ccccc5)c(S(=O)(=O)C(F)(F)F)c4)cc3)CC2)C1 [navitoclax] | 10.1 | 47.4 | does not alter the sensitivity | 170 | 97 | 4.13 | 42.1 | 16 | 5.9 | IC50 (MOLT4; Homo sapiens, MOLT-4, 24 h): 291 nM; IC50 (CCRF-CEM; Homo sapiens, 24 h, read-out: IC50, CellTiter-Glo): 492 nM; dose at which platelet toxicity was induced (platelets): > 3 mg/kg; IC50 (PF-382; Homo sapiens, PF-382, 24 h): 379 nM |
| CC1(C)CCC(CN2CCN(c3ccc(C(=O)NS(=O)(=O)c4ccc(NCC5CCOCC5)c([N+](=O)[O-])c4)c(Oc4cnc5[nH]ccc5c4)c3)CC2)=C(c2ccc(Cl)cc2)C1 [venetoclax] | 3.8 | 125 | does not alter the sensitivity | 25000 | 6 | 16 | 4.7 | 1.2 | 0.908 | IC50 [6]: 3.58 nM; median survival (RS4;11 WT BCL2 xenograft): 59 days; tumor volume upon stopping treatment (RS4;11 WT BCL2 xenograft): relapsed and exhibited increased tumor growth; plasma persistence / clearance at 30 hr post treatment [3]: persisted in plasma; platelet counts throughout treatment (OSU-CLL xenograft): maintained similar platelet counts; survival compared to vehicle (OSU-CLL xenograft): significantly improved the survival; plateau of killing [7]: 50% |
